Data as given in ChEMBL document CHEMBL5357082, “Identification and Optimization of Small Molecule Pyrazolopyrimidine TLR7 Agonists for Applications in Immuno-oncology” (ACS Med Chem Lett, 2024).
pEC50, pIC50: −log10 of the molar value. Activity calls are given as the source filed them. No cut-off for these calls is given here.

Tests used:
Cytochrome P450 3A4 [1] = molecular target: T1, Cytochrome P450 3A4 (Homo sapiens, UniProt P08684); assay: Inhibition of CYP3A4 (unknown origin) using BFC as substrate preincubated with compound followed by substrate addition at 5 mins; format: ADME
T1 sequence (P08684 whole entry): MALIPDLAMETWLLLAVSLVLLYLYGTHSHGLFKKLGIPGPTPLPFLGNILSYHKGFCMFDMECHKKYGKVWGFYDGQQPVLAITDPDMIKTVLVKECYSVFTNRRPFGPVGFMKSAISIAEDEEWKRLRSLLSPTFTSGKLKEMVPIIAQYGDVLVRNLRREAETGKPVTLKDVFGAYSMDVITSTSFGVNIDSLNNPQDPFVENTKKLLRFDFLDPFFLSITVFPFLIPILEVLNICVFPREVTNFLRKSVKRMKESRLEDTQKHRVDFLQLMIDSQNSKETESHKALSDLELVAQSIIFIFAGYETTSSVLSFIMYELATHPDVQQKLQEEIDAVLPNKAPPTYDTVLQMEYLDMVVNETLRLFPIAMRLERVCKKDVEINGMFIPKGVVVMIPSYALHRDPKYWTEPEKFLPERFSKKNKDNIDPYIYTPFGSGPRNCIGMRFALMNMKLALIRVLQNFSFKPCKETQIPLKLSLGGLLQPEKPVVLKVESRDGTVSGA

Cytochrome P450 3A4 [2] = molecular target: T1, Cytochrome P450 3A4; assay: Inhibition of CYP3A4 (unknown origin) using BFC as substrate; format: ADME
Toll-like receptor 7 [3] = molecular target: T2, Toll-like receptor 7 (Mus musculus, UniProt P58681); assay: (§1) Agonist activity at mouse TLR7
T2 sequence (P58681 whole entry): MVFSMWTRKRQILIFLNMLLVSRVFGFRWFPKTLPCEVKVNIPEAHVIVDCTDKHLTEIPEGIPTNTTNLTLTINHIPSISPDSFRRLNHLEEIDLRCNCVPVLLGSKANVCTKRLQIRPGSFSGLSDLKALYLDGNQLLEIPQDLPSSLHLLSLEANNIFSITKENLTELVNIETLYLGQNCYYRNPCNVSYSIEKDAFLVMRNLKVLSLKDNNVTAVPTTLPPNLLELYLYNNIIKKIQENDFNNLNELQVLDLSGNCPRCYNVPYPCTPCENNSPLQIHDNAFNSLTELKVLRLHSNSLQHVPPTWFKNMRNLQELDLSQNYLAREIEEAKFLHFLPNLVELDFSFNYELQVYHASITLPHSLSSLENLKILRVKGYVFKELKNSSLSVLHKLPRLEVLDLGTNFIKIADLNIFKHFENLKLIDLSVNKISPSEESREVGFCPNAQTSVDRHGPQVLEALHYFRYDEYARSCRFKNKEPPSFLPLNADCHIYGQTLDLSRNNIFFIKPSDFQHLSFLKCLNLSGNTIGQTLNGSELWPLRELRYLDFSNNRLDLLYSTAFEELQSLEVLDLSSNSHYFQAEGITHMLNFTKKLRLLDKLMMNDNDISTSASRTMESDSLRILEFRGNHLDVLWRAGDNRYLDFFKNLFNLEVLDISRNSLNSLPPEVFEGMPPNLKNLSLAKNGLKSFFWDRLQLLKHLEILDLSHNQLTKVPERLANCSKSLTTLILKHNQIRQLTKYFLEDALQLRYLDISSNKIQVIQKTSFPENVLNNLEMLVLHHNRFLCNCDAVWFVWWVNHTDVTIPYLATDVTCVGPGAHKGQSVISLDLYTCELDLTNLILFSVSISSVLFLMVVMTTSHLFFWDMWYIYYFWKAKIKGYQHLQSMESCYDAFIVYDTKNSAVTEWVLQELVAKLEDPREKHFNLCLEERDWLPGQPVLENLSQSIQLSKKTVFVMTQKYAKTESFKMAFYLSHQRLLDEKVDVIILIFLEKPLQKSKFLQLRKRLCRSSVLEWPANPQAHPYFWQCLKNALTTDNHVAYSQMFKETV

[4] = Metabolic stability in mouse liver microsomes assessed as compound remaining at 0.5 uM incubated for 10 mins in presence of NADPH by UV absorbance based assay; format: ADME, Microsome; settings: read-out: Stability
Cytochrome P450 2D6 = Cytochrome P450 2D6 (Homo sapiens, UniProt P10635); assay: Inhibition of CYP2D6 (unknown origin); format: ADME
Cytochrome P450 2D6, sequence (P10635 whole entry): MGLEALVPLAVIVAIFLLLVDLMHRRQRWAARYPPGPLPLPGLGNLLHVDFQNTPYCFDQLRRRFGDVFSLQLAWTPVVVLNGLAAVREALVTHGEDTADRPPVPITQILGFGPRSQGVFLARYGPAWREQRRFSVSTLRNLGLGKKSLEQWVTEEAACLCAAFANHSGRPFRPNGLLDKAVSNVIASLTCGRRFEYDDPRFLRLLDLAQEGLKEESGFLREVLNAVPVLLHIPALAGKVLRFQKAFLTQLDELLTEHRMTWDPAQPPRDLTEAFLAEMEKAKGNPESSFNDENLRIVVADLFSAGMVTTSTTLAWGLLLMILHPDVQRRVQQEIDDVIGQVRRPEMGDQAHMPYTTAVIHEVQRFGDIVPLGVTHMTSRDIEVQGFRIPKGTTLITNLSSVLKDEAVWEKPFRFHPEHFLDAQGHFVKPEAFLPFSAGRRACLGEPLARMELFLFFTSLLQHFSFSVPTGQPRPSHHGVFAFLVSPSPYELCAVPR

Cytochrome P450 1A2 = molecular target: T3, Cytochrome P450 1A2 (Homo sapiens, UniProt P05177); assay: Inhibition of CYP1A2 (unknown origin); format: ADME
T3 sequence (P05177 whole entry): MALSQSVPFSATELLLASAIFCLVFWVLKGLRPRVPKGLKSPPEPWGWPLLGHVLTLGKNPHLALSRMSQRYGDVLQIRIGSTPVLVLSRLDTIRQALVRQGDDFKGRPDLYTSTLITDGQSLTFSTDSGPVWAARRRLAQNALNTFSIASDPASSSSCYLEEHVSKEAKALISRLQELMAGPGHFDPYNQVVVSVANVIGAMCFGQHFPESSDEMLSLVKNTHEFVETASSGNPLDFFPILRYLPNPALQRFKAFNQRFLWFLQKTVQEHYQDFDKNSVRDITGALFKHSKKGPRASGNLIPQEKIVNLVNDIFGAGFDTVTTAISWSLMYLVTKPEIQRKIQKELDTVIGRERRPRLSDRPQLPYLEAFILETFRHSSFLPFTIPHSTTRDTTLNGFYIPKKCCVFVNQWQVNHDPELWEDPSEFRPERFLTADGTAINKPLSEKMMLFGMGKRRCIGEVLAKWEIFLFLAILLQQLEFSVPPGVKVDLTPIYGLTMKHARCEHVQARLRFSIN

Cytochrome P450 2C9 = Cytochrome P450 2C9 (Homo sapiens, UniProt P11712); assay: Inhibition of CYP2C9 (unknown origin); format: ADME
Cytochrome P450 2C9, sequence (P11712 whole entry): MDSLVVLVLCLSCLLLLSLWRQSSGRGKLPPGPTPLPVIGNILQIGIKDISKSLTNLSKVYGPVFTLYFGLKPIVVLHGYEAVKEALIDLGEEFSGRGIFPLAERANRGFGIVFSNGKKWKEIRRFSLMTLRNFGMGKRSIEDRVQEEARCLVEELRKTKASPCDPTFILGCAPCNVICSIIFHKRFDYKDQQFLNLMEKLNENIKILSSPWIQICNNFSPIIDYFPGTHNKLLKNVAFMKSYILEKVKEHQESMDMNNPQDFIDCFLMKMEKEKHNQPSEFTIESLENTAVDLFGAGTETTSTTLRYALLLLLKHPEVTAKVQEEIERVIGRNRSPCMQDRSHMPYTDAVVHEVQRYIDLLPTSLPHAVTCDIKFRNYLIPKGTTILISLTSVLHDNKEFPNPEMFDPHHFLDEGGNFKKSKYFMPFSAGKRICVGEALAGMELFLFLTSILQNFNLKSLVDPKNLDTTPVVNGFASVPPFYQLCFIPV

Cytochrome P450 2C19 = Cytochrome P450 2C19 (Homo sapiens, UniProt P33261); assay: Inhibition of CYP2C19 (unknown origin); format: ADME
Cytochrome P450 2C19, sequence (P33261 whole entry): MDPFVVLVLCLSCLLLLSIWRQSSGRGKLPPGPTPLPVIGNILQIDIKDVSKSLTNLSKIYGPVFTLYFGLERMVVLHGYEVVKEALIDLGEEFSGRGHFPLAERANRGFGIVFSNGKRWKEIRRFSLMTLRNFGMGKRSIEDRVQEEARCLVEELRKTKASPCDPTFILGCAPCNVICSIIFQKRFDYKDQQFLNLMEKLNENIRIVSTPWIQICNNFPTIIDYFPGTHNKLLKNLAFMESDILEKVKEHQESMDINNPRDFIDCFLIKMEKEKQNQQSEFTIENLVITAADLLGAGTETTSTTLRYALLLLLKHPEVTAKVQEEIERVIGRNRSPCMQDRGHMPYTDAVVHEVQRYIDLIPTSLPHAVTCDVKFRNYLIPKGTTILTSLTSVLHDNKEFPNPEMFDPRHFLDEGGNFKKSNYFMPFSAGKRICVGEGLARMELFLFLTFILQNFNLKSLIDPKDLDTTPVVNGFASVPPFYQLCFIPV

Cytochrome P450 2C8 = molecular target: T4, Cytochrome P450 2C8 (Homo sapiens, UniProt P10632); assay: Inhibition of CYP2C8 (unknown origin); format: ADME
T4 sequence (P10632 whole entry): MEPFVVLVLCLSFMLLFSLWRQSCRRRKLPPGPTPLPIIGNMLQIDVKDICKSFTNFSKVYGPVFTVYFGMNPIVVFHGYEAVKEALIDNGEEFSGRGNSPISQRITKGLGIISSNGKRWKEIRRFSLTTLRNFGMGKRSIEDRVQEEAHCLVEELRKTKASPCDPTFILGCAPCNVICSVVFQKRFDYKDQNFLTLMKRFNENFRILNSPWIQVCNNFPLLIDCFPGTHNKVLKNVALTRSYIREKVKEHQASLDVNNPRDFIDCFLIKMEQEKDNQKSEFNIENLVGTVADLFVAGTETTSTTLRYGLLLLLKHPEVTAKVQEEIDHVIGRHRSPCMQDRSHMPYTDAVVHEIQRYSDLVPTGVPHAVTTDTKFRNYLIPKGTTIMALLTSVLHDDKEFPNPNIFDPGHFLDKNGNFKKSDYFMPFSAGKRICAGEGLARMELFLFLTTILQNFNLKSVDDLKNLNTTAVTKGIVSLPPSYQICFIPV

[5] = molecular target: Voltage-gated inwardly rectifying potassium channel KCNH2 (Homo sapiens, UniProt Q12809); assay: Inhibition of hERG; format: toxicity; settings: for inhibition (INH): human
Voltage-gated inwardly rectifying potassium channel KCNH2, sequence (Q12809 whole entry): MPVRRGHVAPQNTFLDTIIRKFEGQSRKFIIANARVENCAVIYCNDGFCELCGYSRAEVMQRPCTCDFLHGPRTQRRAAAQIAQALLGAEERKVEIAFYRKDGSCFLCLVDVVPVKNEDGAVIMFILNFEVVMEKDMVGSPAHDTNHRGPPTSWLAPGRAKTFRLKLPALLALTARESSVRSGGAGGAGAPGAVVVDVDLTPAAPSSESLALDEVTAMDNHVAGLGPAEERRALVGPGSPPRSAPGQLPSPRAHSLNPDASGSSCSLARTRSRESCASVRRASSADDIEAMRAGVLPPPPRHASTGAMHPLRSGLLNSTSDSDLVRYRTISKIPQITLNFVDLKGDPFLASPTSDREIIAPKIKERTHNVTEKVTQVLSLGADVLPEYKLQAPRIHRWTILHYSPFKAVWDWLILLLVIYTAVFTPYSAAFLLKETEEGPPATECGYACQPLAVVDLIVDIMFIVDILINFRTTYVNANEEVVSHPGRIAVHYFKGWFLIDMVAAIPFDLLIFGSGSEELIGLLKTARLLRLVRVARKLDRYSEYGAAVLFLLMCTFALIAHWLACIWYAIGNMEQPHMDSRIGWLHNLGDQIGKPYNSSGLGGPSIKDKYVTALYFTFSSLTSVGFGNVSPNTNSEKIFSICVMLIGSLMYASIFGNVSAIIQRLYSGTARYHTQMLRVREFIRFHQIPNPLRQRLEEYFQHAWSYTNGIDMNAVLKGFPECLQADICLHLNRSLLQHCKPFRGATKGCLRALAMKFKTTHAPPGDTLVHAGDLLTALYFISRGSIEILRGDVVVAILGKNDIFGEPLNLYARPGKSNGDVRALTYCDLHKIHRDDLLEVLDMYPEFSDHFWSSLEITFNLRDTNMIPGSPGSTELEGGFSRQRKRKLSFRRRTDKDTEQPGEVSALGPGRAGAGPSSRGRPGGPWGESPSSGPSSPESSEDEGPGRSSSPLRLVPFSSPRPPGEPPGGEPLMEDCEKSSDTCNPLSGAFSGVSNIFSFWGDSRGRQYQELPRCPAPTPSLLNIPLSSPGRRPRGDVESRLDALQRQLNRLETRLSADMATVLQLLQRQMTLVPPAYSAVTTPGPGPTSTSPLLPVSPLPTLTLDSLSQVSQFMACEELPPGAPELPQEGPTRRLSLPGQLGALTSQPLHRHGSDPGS

[6] = Metabolic stability in human liver microsomes assessed as compound remaining at 0.5 uM incubated for 10 mins in presence of NADPH by UV absorbance based assay; format: ADME, Microsome; settings: read-out: Stability
Toll-like receptor 7 [7] = molecular target: T5, Toll-like receptor 7 (Homo sapiens, UniProt Q9NYK1); assay: Agonist activity at human TLR7 in HEK-Blue hTLR7 cells harboring SEAP reporter transgene incubated for 18 hrs by quanti-blue reagent based assay; format: cell-based
T5 sequence (Q9NYK1 whole entry): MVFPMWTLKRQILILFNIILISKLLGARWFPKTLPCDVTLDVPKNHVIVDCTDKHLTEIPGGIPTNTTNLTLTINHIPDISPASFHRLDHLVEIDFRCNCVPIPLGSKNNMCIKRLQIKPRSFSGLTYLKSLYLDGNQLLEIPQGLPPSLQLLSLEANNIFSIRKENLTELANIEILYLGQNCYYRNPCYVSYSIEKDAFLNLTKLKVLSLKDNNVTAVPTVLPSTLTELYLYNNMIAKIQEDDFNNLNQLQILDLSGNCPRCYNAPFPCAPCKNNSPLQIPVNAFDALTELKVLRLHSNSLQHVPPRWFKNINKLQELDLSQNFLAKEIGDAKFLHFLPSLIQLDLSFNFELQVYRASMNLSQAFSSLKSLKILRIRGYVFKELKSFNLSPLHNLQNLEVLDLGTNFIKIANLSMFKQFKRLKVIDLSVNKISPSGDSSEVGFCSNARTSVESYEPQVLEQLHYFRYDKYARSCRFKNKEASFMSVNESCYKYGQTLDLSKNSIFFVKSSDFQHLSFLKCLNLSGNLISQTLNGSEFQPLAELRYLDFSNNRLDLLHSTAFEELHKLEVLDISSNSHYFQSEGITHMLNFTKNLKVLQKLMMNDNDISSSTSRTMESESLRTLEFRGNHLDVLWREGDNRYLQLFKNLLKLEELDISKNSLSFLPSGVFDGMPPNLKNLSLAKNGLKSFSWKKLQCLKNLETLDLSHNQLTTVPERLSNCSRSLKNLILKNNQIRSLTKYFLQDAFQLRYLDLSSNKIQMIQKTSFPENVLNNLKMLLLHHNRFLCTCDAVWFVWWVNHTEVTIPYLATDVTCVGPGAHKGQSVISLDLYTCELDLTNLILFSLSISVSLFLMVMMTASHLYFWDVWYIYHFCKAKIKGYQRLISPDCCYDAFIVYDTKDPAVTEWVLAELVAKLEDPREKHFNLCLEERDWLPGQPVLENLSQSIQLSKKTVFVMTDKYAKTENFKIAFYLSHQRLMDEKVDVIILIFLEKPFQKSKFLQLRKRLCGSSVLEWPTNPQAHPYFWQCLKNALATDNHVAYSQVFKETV

Cytochrome P450 3A4 [8] = molecular target: T1, Cytochrome P450 3A4; assay: Inhibition of CYP3A4 (unknown origin) using BFC as substrate preincubated with compound followed by substrate addition at 30 mins; format: ADME
[9] = Cytotoxicity against PHA-activated T-cells (unknown origin) assessed as inhibition of IL-2 induced cell proliferation measured after 72 hrs by MTS assay; format: toxicity, cell-based
[10] = molecular target: T6, Toll-like receptor 7 (Mus musculus) (UniProt P58681); assay: as §1
T6 sequence (whole entry): T2 sequence (P58681 whole entry)

Row | SMILES | pIC50 (Cytochrome P450 3A4 [1]) | pIC50 (Cytochrome P450 3A4 [2]) | pEC50 (Toll-like receptor 7 [3]) | remaining at 10 min, 0.5 µM [4] [%] | pIC50 (Cytochrome P450 2D6) | pIC50 (Cytochrome P450 1A2) | pIC50 (Cytochrome P450 2C9) | pIC50 (Cytochrome P450 2C19) | pIC50 (Cytochrome P450 2C8) | pIC50 [5] | remaining at 10 min, 0.5 µM [6] [%] | pEC50 (Toll-like receptor 7 [7]) | pIC50 (Cytochrome P450 3A4 [8]) | IC50 at 72 h [9] [µM] | inhibition (INH) [5] | Activity [10]
1 | CCC[C@@H](CCO)Nc1nc(N)nc2cnn(Cc3ncc(C4CC5(C4)CN(C4CCOCC4)C5)cc3OC)c12 | < 4.70 | < 4.70 | 6.83 | 66 | < 4.70 | < 4.70 | < 4.70 | < 4.70 | < 4.70 | < 4.30 | 77 | 6.43 | < 4.70 | > 25 | – | –
2 | CCC[C@@H](CCO)Nc1nc(N)nc2cnn(Cc3ncc(C4CC5(CNC5)C4)cc3OC)c12 | < 4.77 | < 4.77 | 5.80 | 100 | < 4.77 | < 4.77 | < 4.77 | < 4.77 | < 4.77 | < 4.30 | 87 | 6.43 | < 4.77 | > 25 | – | –
3 | CCCCNc1nc(N)nc2c(CC)nn(Cc3ncc(C4CCNCC4)cc3OC)c12 | < 4.70 | < 4.70 | < 5.30 | 47 | < 4.70 | < 4.70 | < 4.70 | < 4.70 | < 4.70 | < 4.30 | 74 | 6.24 | < 4.70 | > 25 | – | –
4 | CCC[C@@H](CCO)Nc1nc(N)nc2cnn(Cc3ncc(C4CCC5(CC4)CN(C4CCOCC4)C5)cc3OC)c12 | < 4.70 | < 4.70 | 7.54 | 50 | < 4.70 | < 4.70 | < 4.70 | < 4.70 | < 4.70 | – | 57 | 7.92 | < 4.70 | 18 | Not Active | –
5 | CCC[C@@H](CCO)Nc1nc(N)nc2cnn(Cc3ncc(C4CCC5(CC4)CN(C(C)C)C5)cc3OC)c12 | < 4.70 | < 4.70 | 7.32 | 87 | < 4.70 | < 4.70 | < 4.70 | < 4.70 | < 4.70 | 4.89 | 88 | 7.68 | < 4.70 | > 25 | – | –
6 | CCCCNc1nc(N)nc2cnn(Cc3ccc(N4CCNCC4)cc3OC)c12 | < 4.70 | < 4.70 | 5.71 | 5 | < 4.70 | < 4.70 | < 4.70 | < 4.70 | < 4.70 | – | 100 | 6.11 | < 4.70 | 20 | Not Active | –
7 | CCCCNc1nc(N)nc2c(C3CC3)nn(Cc3ncc(C4CCNCC4)cc3OC)c12 | < 4.70 | 5.00 | < 5.30 | 30 | < 4.70 | < 4.70 | 4.75 | < 4.70 | < 4.70 | – | 97 | 6.34 | 5.00 | 20 | Not Active | –
8 | CCCCNc1nc(N)nc2cnn(Cc3ncc(C4CCNCC4)cc3OC)c12 | < 4.70 | < 4.70 | 6.01 | 97 | < 4.70 | < 4.70 | < 4.70 | < 4.70 | < 4.70 | 4.72 | 100 | 7.08 | < 4.70 | > 25 | – | –
9 | CCC[C@@H](CCO)Nc1nc(N)nc2cnn(Cc3ncc(C4CCN(C5CCN(C)CC5)CC4)cc3OC)c12 | < 4.70 | < 4.70 | – | 85 | < 4.70 | < 4.70 | < 4.70 | < 4.70 | < 4.70 | < 4.30 | 99 | – | < 4.70 | > 25 | – | inactive
